This passage reports IC50 results from patent US7435815B2, “Sulfonylamino-acetic acid derivatives” (Actelion Pharmaceuticals Ltd., priority 2002, dated 2008).

The term IC50 denotes the concentration needed to halve the response being measured.

SMILES strings stand for the structures.

For one assay, the target named is T1, human orexin-2 receptor (Homo sapiens, UniProt O43614).
T1 construct: expressed in transfected cells; host or cells: CHO cells (G418 selection)
T1 sequence (O43614 1-444): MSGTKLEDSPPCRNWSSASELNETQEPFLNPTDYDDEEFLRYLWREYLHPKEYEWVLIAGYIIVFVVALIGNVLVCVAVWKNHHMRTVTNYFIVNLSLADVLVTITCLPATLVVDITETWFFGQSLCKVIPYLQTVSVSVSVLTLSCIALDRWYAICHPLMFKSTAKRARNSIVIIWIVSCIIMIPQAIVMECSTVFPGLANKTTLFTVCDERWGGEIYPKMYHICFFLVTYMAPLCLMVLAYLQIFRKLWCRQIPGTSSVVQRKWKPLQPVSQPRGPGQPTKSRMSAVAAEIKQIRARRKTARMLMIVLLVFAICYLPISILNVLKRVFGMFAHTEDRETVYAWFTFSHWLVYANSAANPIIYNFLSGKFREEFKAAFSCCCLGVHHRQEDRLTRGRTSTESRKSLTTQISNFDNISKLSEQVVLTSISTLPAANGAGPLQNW
Nature of the assay: Intracellular calcium measurements (FLIPR), orexin receptor antagonistic activity, OX2. It counts as cell-based. The note with it: CHO cells expressing the human orexin-2 receptor, agonist 10 nM human orexin-A. On the procedure: (§1) The Orexin receptor antagonistic activity of the compounds of formula (I) was determined in accordance with the following experimental method.
(§2) Intracellular Calcium Measurements
(§3) Chinese hamster ovary (CHO) cells expressing the human orexin-1 receptor and the human orexin-2 receptor, respectively, were grown in culture medium (Ham F-12 with L-Glutamine) containing 300 μg/ml G418, 100 U/ml penicillin, 100 μg/ml streptomycin and 10% inactivated foetal calf serum (FCS).
(§4) The cells were seeded at 80,000 cells/well into 96-well black clear bottom sterile plates (Costar) which had been precoated with 1% gelatine in Hanks' Balanced Salt Solution (HBSS). All reagents were from Gibco BRL.
(§5) The seeded plates were incubated overnight at 37° C. in 5% CO2.
(§6) Human orexin-A as an agonist was prepared as 1 mM stock solution in methanol:water (1:1), diluted in HBSS containing 0.1% bovine serum albumin (BSA) and 2 mM HEPES for use in the assay at a final concentration of 10 nM.
(§7) Antagonists were prepared as 10 mM stock solution in DMSO, then diluted in 96-well plates, first in DMSO, then in HBSS containing 0.1% bovine serum albumin (BSA) and 2 mM HEPES.
(§8) On the day of the assay, 100 μl of loading medium (HBSS containing 1% FCS, 2 mM HEPES, 5 mM probenecid (Sigma) and 3 μM of the fluorescent calcium indicator fluo-3 AM (1 mM stock solution in DMSO with 10% pluronic acid) (Molecular Probes) was added to each well.
(§9) The 96-well plates were incubated for 60 min at 37° C. in 5% CO2. The loading solution was then aspirated and cells were washed 3 times with 200 μl HBSS containing 2.5 mM probenecid, 0.1% BSA, 2 mM HEPES. 100 μl of that same buffer was left in each well. Within the Fluorescent Imaging Plate Reader (FLIPR, Molecular Devices), antagonists were added to the plate in a volume of 50 μl, incubated for 20 min and finally 100 μl of agonist was added. Fluorescence was measured for each well at 1 second intervals, and the height of each fluorescence peak was compared to the height of the fluorescence peak induced by 10 nM orexin-A with buffer in place of antagonist.

In another assay the target is T2, human orexin-1 receptor (Homo sapiens, UniProt O43613).
T2 construct: expressed in transfected cells; host or cells: CHO cells (G418 selection)
T2 sequence (O43613 1-425): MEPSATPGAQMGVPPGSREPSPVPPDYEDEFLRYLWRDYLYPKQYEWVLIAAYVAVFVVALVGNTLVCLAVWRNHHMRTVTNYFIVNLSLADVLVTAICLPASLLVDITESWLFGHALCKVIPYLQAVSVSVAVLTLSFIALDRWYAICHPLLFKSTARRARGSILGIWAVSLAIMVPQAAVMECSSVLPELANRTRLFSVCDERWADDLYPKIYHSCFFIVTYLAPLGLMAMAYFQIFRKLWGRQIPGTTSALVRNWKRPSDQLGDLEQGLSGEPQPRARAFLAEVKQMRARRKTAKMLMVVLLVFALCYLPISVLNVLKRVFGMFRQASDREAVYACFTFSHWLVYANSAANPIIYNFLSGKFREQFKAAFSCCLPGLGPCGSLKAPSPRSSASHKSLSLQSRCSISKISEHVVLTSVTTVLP
Nature of the assay: Intracellular calcium measurements (FLIPR), orexin receptor antagonistic activity, OX1. It counts as cell-based. The note with it: CHO cells expressing the human orexin-1 receptor, agonist 10 nM human orexin-A. On the procedure: as §1, §2, §3, §4, §5, §6, §7, §8, §9
For orientation: Calcium flux is commonly read through the fluorescence of an indicator in the cells.

Regarding `CCN(Cc1ccccc1)C(=O)CN(c1ccc(OC)nc1)S(=O)(=O)c1ccccc1C` [Example 46, N-Benzyl-N-ethyl-2-[(6-methoxy-pyridin-3-yl)-(toluene-2-sulfonyl)-amino]-acetamide], the IC50 is 5 nM on human orexin-2 receptor and 898 nM at human orexin-1 receptor.
For `CCN(Cc1ccccc1)C(=O)CN(c1ccccc1OC)S(=O)(=O)c1ccccc1C` [Example 47, N-Benzyl-N-ethyl-2-[(2-methoxy-phenyl)-(toluene-2-sulfonyl)-amino]-acetamide], the IC50 on human orexin-2 receptor amounted to 4 nM; at human orexin-1 receptor, 354 nM.
The corresponding values for `CCN(CCC#N)C(=O)CN(c1ccc(C)cc1)S(=O)(=O)c1ccc(C(C)(C)C)cc1` [Example 63, 2-[(4-tert-Butyl-benzenesulfonyl)-p-tolyl-amino]-N-(2-cyano-ethyl)-N-ethyl-acetamide] are 3 nM and > 10000 nM.
The corresponding values for `CCN(Cc1ccccn1)C(=O)CN(c1ccc(C)cc1)S(=O)(=O)c1ccc(C(C)(C)C)cc1` [Example 66, 2-[(4-tert-Butyl-benzenesulfonyl)-p-tolyl-amino]-N-ethyl-N-pyridin-2-ylmethyl-acetamide] are 4 nM and 1030 nM.
The corresponding values for `CCN(Cc1cccc(C)n1)C(=O)CN(c1ccc(C)cc1)S(=O)(=O)c1ccc(C(C)(C)C)cc1` [Example 71, 2-[(4-tert-Butyl-benzenesulfonyl)-p-tolyl-amino]-N-ethyl-N-(6-methyl-pyridin-2-ylmethyl)-acetamide] are 5 nM and 417 nM.
Consider `CCN(Cc1cccc(C)n1)C(=O)CN(c1cccc(N(C)C)c1)S(=O)(=O)c1ccc(C(C)(C)C)cc1` [Example 87, 2-[(4-tert-Butyl-benzenesulfonyl)-(3-dimethylamino-phenyl)-amino]-N-ethyl-N-(6-methyl-pyridin-2-ylmethyl)-acetamide], for which the figures for the half-maximal inhibitory concentration (IC50) on human orexin-2 receptor and on human orexin-1 receptor were 8 nM and 56 nM, respectively.
Regarding `CN(C)c1cccc(N(CC(=O)N(CCO)Cc2ccccn2)S(=O)(=O)c2ccc(C(C)(C)C)cc2)c1` [Example 111, 2-[(4-tert-Butyl-benzenesulfonyl)-(3-dimethylamino-phenyl)-amino]-N-(2-hydroxy-ethyl)-N-pyridin-2-ylmethyl-acetamide], the IC50 worked out at 5 nM at human orexin-2 receptor and 331 nM at human orexin-1 receptor.
The corresponding values for `CCN(Cc1cccc(O)c1)C(=O)CN(c1ccccc1OC)S(=O)(=O)c1ccccc1C` [Example 158, N-Ethyl-N-(3-hydroxy-benzyl)-2-[(2-methoxy-phenyl)-(toluene-2-sulfonyl)-amino]-acetamide] are 5 nM and 840 nM.
The corresponding values for `CCN(Cc1cccc(C)n1)C(=O)CN(c1ccc(OC)nc1)S(=O)(=O)c1ccccc1C` [Example 160, N-Ethyl-2-[(6-methoxy-pyridin-3-yl)-(toluene-2-sulfonyl)-amino]-N-(6-methyl-pyridin-2-ylmethyl)-acetamide] are 2 nM and 8640 nM.
The corresponding values for `CCN(Cc1ccccn1)C(=O)CN(c1ccc(OC)nc1)S(=O)(=O)c1ccccc1C` [Example 163, N-Ethyl-2-[(6-methoxy-pyridin-3-yl)-(toluene-2-sulfonyl)-amino]-N-pyridin-2-ylmethyl-acetamide] are 4 nM and > 10000 nM.
As to `CCN(Cc1ccccc1)C(=O)CN(c1ccccc1OC)S(=O)(=O)c1ncccc1C` [Example 185, N-Benzyl-N-ethyl-2-[(2-methoxy-phenyl)-(3-methyl-pyridine-2-sulfonyl)-amino]-acetamide], the figures for the 50% inhibitory concentration (IC50) at human orexin-2 receptor and at human orexin-1 receptor were 4 nM and 4270 nM, respectively.
The corresponding values for `CCN(Cc1ccccc1)C(=O)CN(c1ccc(OC)nc1)S(=O)(=O)c1ncccc1C` [Example 207, N-Benzyl-N-ethyl-2-[(6-methoxy-pyridin-3-yl)-(3-methyl-pyridine-2-sulfonyl)-amino]-acetamide] are 4 nM and 5370 nM.
